Laboratory results as given in US7229651B2, “Dietary supplements containing natural ingredients” (Melaleuca, Inc., priority 1998, dated 2007).

How the values were obtained:
LDL cholesterol = experiment: Copper ion catalysed LDL cholesterol oxidation (conjugated dienes at 234 nm, lag time); format: biochemical, human
From the text: LDL cholesterol oxidation or protection therefrom can be determined by several methods. Kleinveld et al., Clin. Chem., 38(10):2066–2072 (1992) describes the methods for the LDL oxidation experiments described and used herein. A preferred way to practice the method encompasses extracting LDL cholesterol from whole blood samples collected from a subject using standard techniques. The extracted LDL cholesterol is divided into control and experimental samples. LDL oxidation is catalyzed by adding a copper ion solution to each LDL cholesterol sample. Copper ions are known to catalyze and enhance LDL cholesterol oxidation. […]
Copper ions accelerate the production of conjugated dienes in LDL cholesterol oxidation, which absorb light at 234 nm. Therefore, LDL cholesterol oxidation is monitored by following the increase in absorbance at 234 nm as a function of time as shown in FIG. 6. […]
As described above, LDL cholesterol oxidation is commonly measured by observing absorbance at 234 nm (Abs234nm) as a function of time while the LDL cholesterol is exposed to oxidative conditions. The antioxidant effectiveness of PROVEXCV™ and other substances was determined.
LDL cholesterol was prepared from human volunteer blood samples. […] To each sample a measured amount of copper ions was added.
After mixing, the Abs234nm of each solution was then monitored as a function of time. […]

[1] = tested on: in vivo platelet activity (acute platelet thrombus formation); conditions: cited from earlier work
platelet activity = conditions: aspirin, blood aggregometry test; cited from earlier work

vitamin E
lag time before LDL oxidation begins vs native LDL (LDL cholesterol; Vitamin E 5.3 mg/L, CuCl2 5 μmol/L, 30° C., FIG. 8): delayed | time LDL cholesterol protected from oxidation (lag time) (LDL cholesterol; vitamin E at the described concentration, copper ions): about 95 minutes

CC(=O)Oc1ccccc1C(=O)O [aspirin]
dogs with renewed CFR's on epinephrine infusion ([1]; after abolishment of CFR's with 5–10 mg/kg of aspirin): 50–60 % of dogs | effect on CFR's ([1]; aspirin, Folts model, literature): eliminates CFR's | dosage at which platelet activity is inhibited ([1]; aspirin, known value): 5 mg/kg | reactivation of inhibited platelet activity on epinephrine ([1]; aspirin, epinephrine 0.2 μg/Kg/min intravenously): can be reactivated | decrease of platelet activity, collagen stimulated (platelet activity): 30–40%
